Assay results: PMC9571063 (Molecules, 2022)
Read-outs that look alike come from different tables or passages of the source.

Tests used:
[1] = target: T1, ABL1(F317I)-phosphorylated (Homo sapiens, UniProt P00519, F317I); assay: KINOMEscan; type: binding; conditions: read-out: Percent Control
T1 construct: purchased Eurofins DiscoverX KINOMEscan (scanMAX 468)

[2] = target: T2, ABL1-phosphorylated (Homo sapiens, UniProt P00519); assay: KINOMEscan; type: binding; conditions: read-out: Percent Control
T2 construct: purchased Eurofins DiscoverX KINOMEscan (scanMAX 468)

[3] = target: T3, ACVR1 (Homo sapiens, UniProt Q04771); assay: KINOMEscan; type: binding; conditions: read-out: Percent Control
T3 construct: purchased Eurofins DiscoverX KINOMEscan (scanMAX 468)

[4] = target: T4, ADCK4 (Homo sapiens, UniProt Q96D53); assay: KINOMEscan; type: binding; conditions: read-out: Percent Control
T4 construct: purchased Eurofins DiscoverX KINOMEscan (scanMAX 468)

[5] = target: T5, AURKB (Homo sapiens, UniProt Q96GD4); assay: KINOMEscan; type: binding; conditions: read-out: Percent Control
T5 construct: purchased Eurofins DiscoverX KINOMEscan (scanMAX 468)

[6] = target: T6, CAMK4 (Homo sapiens, UniProt Q16566); assay: KINOMEscan; type: binding; conditions: read-out: Percent Control
T6 construct: purchased Eurofins DiscoverX KINOMEscan (scanMAX 468)

[7] = target: T7, CHEK2 (Homo sapiens, UniProt O96017); assay: KINOMEscan; type: binding; conditions: read-out: Percent Control
T7 construct: purchased Eurofins DiscoverX KINOMEscan (scanMAX 468)

[8] = target: T8, CSNK1G2 (Homo sapiens, UniProt P78368); assay: KINOMEscan; type: binding; conditions: read-out: Percent Control
T8 construct: purchased Eurofins DiscoverX KINOMEscan (scanMAX 468)

[9] = target: T9, EPHA1 (Homo sapiens, UniProt P21709); assay: KINOMEscan; type: binding; conditions: read-out: Percent Control
T9 construct: purchased Eurofins DiscoverX KINOMEscan (scanMAX 468)

[10] = target: T10, EPHA5 (Homo sapiens, UniProt P54756); assay: KINOMEscan; type: binding; conditions: read-out: Percent Control
T10 construct: purchased Eurofins DiscoverX KINOMEscan (scanMAX 468)

[11] = target: T11, ERN1 (Homo sapiens, UniProt O75460); assay: KINOMEscan; type: binding; conditions: read-out: Percent Control
T11 construct: purchased Eurofins DiscoverX KINOMEscan (scanMAX 468)

[12] = target: T12, FER (Homo sapiens, UniProt P16591); assay: KINOMEscan; type: binding; conditions: read-out: Percent Control
T12 construct: purchased Eurofins DiscoverX KINOMEscan (scanMAX 468)

[13] = target: T13, GCN2(Kin.Dom.2,S808G) (Homo sapiens, UniProt Q9P2K8, S808G); assay: KINOMEscan; type: binding; conditions: read-out: Percent Control
T13 construct: GCN2(Kin.Dom.2,S808G); purchased Eurofins DiscoverX KINOMEscan (scanMAX 468)

[14] = target: T14, HIPK2 (Homo sapiens, UniProt Q9H2X6); assay: KINOMEscan; type: binding; conditions: read-out: Percent Control
T14 construct: purchased Eurofins DiscoverX KINOMEscan (scanMAX 468)

[15] = target: T15, HIPK3 (Homo sapiens, UniProt Q9H422); assay: KINOMEscan; type: binding; conditions: read-out: Percent Control
T15 construct: purchased Eurofins DiscoverX KINOMEscan (scanMAX 468)

[16] = target: T16, HIPK4 (Homo sapiens, UniProt Q8NE63); assay: KINOMEscan; type: binding; conditions: read-out: Percent Control
T16 construct: purchased Eurofins DiscoverX KINOMEscan (scanMAX 468)

[17] = target: T17, LATS1 (Homo sapiens, UniProt O95835); assay: KINOMEscan; type: binding; conditions: read-out: Percent Control
T17 construct: purchased Eurofins DiscoverX KINOMEscan (scanMAX 468)

[18] = target: T18, MAP3K1 (Homo sapiens, UniProt Q13233); assay: KINOMEscan; type: binding; conditions: read-out: Percent Control
T18 construct: purchased Eurofins DiscoverX KINOMEscan (scanMAX 468)

[19] = target: T19, MAP3K15 (Homo sapiens, UniProt Q6ZN16); assay: KINOMEscan; type: binding; conditions: read-out: Percent Control
T19 construct: purchased Eurofins DiscoverX KINOMEscan (scanMAX 468)

[20] = target: T20, MAP4K5 (Homo sapiens, UniProt Q9Y4K4); assay: KINOMEscan; type: binding; conditions: read-out: Percent Control
T20 construct: purchased Eurofins DiscoverX KINOMEscan (scanMAX 468)

[21] = target: T21, MARK2 (Homo sapiens, UniProt Q7KZI7); assay: KINOMEscan; type: binding; conditions: read-out: Percent Control
T21 construct: purchased Eurofins DiscoverX KINOMEscan (scanMAX 468)

[22] = target: T22, PDGFRA (Homo sapiens, UniProt P16234); assay: KINOMEscan; type: binding; conditions: read-out: Percent Control
T22 construct: purchased Eurofins DiscoverX KINOMEscan (scanMAX 468)

[23] = target: T23, PFPK5(P.falciparum) (Plasmodium falciparum, UniProt P61075); assay: KINOMEscan; type: binding; conditions: read-out: Percent Control
T23 construct: purchased Eurofins DiscoverX KINOMEscan (scanMAX 468)

[24] = target: T24, PFTAIRE2 (Homo sapiens, UniProt Q96Q40); assay: KINOMEscan; type: binding; conditions: read-out: Percent Control
T24 construct: purchased Eurofins DiscoverX KINOMEscan (scanMAX 468)

[25] = target: T25, PIK3CA(E542K) (Homo sapiens, UniProt P42336, E542K); assay: KINOMEscan; type: binding; conditions: read-out: Percent Control
T25 construct: purchased Eurofins DiscoverX KINOMEscan (scanMAX 468)

[26] = target: T26, PIK3CA(I800L) (Homo sapiens, UniProt P42336, I800L); assay: KINOMEscan; type: binding; conditions: read-out: Percent Control
T26 construct: purchased Eurofins DiscoverX KINOMEscan (scanMAX 468)

[27] = target: T27, PIM2 (Homo sapiens, UniProt Q9P1W9); assay: KINOMEscan; type: binding; conditions: read-out: Percent Control
T27 construct: purchased Eurofins DiscoverX KINOMEscan (scanMAX 468)

[28] = target: T28, PKN1 (Homo sapiens, UniProt Q16512); assay: KINOMEscan; type: binding; conditions: read-out: Percent Control
T28 construct: purchased Eurofins DiscoverX KINOMEscan (scanMAX 468)

[29] = target: T29, PRKX (Homo sapiens, UniProt P51817); assay: KINOMEscan; type: binding; conditions: read-out: Percent Control
T29 construct: purchased Eurofins DiscoverX KINOMEscan (scanMAX 468)

[30] = target: T30, RET(V804M) (Homo sapiens, UniProt P07949, V804M); assay: KINOMEscan; type: binding; conditions: read-out: Percent Control
T30 construct: purchased Eurofins DiscoverX KINOMEscan (scanMAX 468)

[31] = target: T31, RIPK4 (Homo sapiens, UniProt P57078); assay: KINOMEscan; type: binding; conditions: read-out: Percent Control
T31 construct: purchased Eurofins DiscoverX KINOMEscan (scanMAX 468)

[32] = target: T32, RSK2(Kin.Dom.1-N-terminal) (Homo sapiens, UniProt P51812); assay: KINOMEscan; type: binding; conditions: read-out: Percent Control
T32 construct: RSK2(Kin.Dom.1-N-terminal); purchased Eurofins DiscoverX KINOMEscan (scanMAX 468)

[33] = target: T33, S6K1 (Homo sapiens, UniProt P23443); assay: KINOMEscan; type: binding; conditions: read-out: Percent Control
T33 construct: purchased Eurofins DiscoverX KINOMEscan (scanMAX 468)

[34] = target: T34, SIK (Homo sapiens, UniProt P57059); assay: KINOMEscan; type: binding; conditions: read-out: Percent Control
T34 construct: purchased Eurofins DiscoverX KINOMEscan (scanMAX 468)

[35] = target: T35, STK35 (Homo sapiens, UniProt Q8TDR2); assay: KINOMEscan; type: binding; conditions: read-out: Percent Control
T35 construct: purchased Eurofins DiscoverX KINOMEscan (scanMAX 468)

[36] = target: T36, TLK1 (Homo sapiens, UniProt Q9UKI8); assay: KINOMEscan; type: binding; conditions: read-out: Percent Control
T36 construct: purchased Eurofins DiscoverX KINOMEscan (scanMAX 468)

[37] = target: T37, TSSK1B (Homo sapiens, UniProt Q9BXA7); assay: KINOMEscan; type: binding; conditions: read-out: Percent Control
T37 construct: purchased Eurofins DiscoverX KINOMEscan (scanMAX 468)

[38] = target: T38, ZAK (Homo sapiens, UniProt Q9NYL2); assay: KINOMEscan; type: binding; conditions: read-out: Percent Control
T38 construct: purchased Eurofins (KINOMEscan, DiscoverX)

[39] = target: T39, MmCLK1 (Mus musculus, UniProt P22518); set-up: method as in ref 13 (a number printed in a supplementary file, which may have a reference list of its own: not looked up in the article's list); conditions: DB18, cited from earlier work
T39 construct: host or cells: bacteria

[40] = system: MCF7; set-up: method as in ref 14 (a number printed in a supplementary file, which may have a reference list of its own: not looked up in the article's list); conditions: DB18[a], footnote not given; read-out: Cytotoxic studies IC50 MCF7; cited from earlier work

T39 sequence (P22518 whole entry): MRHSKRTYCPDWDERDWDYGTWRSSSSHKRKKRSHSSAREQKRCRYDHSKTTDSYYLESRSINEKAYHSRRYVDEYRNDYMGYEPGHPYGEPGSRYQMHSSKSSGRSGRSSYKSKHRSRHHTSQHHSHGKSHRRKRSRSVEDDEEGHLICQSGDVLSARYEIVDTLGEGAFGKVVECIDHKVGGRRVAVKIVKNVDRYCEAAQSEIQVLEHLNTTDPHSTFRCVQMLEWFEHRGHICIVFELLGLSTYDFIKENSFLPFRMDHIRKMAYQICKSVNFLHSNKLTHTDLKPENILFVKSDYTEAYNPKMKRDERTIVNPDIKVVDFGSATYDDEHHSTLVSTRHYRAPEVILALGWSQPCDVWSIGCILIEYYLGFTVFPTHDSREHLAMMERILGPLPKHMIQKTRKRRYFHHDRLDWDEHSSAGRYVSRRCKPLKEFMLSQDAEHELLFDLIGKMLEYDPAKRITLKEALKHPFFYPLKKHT
T4 sequence (Q96D53 whole entry): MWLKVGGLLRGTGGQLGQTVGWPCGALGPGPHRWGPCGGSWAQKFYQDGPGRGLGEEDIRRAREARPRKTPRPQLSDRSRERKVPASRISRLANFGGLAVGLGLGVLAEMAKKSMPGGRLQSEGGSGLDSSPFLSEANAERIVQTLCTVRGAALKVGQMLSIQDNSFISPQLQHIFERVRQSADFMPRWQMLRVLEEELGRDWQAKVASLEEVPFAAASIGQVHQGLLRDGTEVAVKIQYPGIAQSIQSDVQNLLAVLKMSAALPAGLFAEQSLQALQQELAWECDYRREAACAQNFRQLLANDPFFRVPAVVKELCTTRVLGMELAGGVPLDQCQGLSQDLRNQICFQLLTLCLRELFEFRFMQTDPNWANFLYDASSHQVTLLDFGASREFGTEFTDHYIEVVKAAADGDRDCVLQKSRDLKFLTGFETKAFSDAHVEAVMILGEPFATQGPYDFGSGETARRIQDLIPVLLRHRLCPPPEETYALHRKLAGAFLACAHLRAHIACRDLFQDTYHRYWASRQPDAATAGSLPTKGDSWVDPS
T19 sequence (Q6ZN16 whole entry): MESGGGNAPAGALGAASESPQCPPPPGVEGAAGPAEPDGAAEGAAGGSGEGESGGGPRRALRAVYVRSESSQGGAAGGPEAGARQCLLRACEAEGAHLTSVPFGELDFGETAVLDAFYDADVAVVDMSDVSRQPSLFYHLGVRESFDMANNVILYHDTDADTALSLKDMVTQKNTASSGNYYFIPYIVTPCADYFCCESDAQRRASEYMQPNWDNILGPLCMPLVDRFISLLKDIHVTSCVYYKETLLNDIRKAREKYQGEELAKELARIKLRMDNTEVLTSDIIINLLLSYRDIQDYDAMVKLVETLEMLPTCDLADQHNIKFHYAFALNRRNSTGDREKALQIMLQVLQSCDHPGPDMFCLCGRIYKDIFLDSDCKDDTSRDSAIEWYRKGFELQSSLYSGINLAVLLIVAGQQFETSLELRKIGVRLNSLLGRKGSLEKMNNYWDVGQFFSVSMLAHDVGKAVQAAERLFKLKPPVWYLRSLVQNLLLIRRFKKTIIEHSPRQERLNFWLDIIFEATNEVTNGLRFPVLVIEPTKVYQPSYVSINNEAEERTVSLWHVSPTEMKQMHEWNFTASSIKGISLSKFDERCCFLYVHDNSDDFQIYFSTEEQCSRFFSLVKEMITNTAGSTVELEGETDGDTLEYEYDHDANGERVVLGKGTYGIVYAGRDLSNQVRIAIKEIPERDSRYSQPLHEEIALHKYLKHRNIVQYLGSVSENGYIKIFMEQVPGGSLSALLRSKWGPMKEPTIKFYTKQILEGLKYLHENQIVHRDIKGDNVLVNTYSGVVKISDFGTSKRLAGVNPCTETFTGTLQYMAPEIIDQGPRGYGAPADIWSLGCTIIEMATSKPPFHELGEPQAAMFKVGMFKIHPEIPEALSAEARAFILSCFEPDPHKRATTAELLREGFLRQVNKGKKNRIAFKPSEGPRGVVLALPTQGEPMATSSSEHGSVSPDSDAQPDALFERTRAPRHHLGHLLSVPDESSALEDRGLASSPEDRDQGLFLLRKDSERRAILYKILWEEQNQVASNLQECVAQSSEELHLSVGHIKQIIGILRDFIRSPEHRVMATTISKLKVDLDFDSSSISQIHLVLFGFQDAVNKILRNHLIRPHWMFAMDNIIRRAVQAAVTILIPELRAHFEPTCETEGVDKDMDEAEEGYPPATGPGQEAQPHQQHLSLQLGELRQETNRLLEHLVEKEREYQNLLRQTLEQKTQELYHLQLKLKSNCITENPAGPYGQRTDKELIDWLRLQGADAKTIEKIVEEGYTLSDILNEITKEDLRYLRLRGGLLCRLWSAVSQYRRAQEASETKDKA
T17 sequence (O95835 whole entry): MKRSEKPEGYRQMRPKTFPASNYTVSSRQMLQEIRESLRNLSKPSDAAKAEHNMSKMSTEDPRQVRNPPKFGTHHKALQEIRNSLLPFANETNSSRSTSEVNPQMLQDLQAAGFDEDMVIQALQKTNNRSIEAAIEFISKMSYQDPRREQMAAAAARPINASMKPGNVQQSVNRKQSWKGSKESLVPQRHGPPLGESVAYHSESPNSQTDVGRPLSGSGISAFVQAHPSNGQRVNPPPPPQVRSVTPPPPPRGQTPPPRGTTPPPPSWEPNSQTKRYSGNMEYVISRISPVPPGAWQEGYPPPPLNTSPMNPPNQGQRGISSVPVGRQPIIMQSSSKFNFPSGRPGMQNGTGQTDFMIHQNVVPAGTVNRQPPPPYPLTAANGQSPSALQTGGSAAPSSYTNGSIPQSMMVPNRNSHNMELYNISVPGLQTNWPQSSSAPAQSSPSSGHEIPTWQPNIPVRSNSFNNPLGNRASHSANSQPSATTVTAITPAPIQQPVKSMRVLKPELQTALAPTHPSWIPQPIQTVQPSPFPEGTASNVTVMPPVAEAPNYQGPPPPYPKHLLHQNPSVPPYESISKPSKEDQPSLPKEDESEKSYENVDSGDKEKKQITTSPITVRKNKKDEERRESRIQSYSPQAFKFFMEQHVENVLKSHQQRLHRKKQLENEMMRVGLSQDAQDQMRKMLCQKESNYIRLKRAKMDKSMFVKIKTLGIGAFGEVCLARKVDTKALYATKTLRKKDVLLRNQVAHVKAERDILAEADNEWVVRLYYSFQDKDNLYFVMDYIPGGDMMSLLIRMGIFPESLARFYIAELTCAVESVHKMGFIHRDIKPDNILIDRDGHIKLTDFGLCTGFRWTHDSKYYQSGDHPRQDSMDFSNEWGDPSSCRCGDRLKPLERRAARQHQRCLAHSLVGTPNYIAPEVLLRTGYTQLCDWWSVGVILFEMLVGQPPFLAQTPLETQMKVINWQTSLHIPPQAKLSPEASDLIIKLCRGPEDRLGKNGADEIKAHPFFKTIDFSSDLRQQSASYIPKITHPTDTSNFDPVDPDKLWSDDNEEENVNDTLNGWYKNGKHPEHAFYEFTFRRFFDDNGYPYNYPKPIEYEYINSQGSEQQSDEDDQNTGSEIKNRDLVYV
T13 sequence (Q9P2K8 590-1001 S808G limits assumed): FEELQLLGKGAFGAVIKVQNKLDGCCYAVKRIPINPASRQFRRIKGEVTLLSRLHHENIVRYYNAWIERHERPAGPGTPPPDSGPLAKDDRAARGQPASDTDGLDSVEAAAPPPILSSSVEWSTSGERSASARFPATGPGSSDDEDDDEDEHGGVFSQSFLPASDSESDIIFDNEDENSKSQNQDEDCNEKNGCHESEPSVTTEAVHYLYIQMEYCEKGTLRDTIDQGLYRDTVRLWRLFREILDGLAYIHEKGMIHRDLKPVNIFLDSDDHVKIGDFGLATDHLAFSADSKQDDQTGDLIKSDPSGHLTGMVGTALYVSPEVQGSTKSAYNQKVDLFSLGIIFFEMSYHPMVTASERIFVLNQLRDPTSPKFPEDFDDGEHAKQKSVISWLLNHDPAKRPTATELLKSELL
T33 sequence (P23443 whole entry): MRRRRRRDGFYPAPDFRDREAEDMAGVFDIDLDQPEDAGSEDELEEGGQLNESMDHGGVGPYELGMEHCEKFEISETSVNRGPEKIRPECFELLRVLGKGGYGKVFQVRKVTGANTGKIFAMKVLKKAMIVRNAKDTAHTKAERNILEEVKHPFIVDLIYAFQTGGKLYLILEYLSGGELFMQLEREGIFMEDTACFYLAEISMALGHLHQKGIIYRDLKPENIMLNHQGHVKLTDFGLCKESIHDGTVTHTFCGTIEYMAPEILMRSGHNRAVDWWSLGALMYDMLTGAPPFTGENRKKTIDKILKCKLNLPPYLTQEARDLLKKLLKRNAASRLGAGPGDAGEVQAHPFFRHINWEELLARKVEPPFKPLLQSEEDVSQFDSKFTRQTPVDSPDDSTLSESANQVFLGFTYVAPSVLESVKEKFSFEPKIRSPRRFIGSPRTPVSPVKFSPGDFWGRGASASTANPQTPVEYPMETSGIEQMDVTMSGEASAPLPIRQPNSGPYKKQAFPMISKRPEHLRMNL
T32 sequence (P51812 1-397 limits assumed): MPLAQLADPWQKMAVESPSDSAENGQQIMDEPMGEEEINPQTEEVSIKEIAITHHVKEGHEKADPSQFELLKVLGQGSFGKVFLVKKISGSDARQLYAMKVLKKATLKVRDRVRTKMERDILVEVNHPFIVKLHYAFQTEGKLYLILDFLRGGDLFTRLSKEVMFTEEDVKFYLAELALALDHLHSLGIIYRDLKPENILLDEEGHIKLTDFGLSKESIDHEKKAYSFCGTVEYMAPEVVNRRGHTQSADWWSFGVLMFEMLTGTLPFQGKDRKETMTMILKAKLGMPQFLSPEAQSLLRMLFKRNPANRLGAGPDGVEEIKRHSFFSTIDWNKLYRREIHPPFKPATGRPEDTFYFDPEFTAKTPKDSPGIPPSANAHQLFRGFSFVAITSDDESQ

Cc1ccc(-n2cc(COc3cccc4cnc(Nc5cccc(Cl)c5)nc34)nn2)c([N+](=O)[O-])c1 [DB18]
remaining binding at 1 µM [1]: 100%
remaining binding at 1 µM [2]: 98%
remaining binding at 1 µM [3]: 100%
remaining binding at 1 µM [4]: 100%
remaining binding at 1 µM [5]: 99%
remaining binding at 1 µM [6]: 100%
remaining binding at 1 µM [7]: 100%
remaining binding at 1 µM [8]: 90%
remaining binding at 1 µM [9]: 95%
remaining binding at 1 µM [10]: 100%
remaining binding at 1 µM [11]: 94%
remaining binding at 1 µM [12]: 100%
remaining binding at 1 µM [13]: 100%
remaining binding at 1 µM [14]: 33%
remaining binding at 1 µM [15]: 46%
remaining binding at 1 µM [16]: 17%
remaining binding at 1 µM [17]: 99%
remaining binding at 1 µM [18]: 98%
remaining binding at 1 µM [19]: 93%
remaining binding at 1 µM [20]: 100%
remaining binding at 1 µM [21]: 94%
remaining binding at 1 µM [22]: 100%
remaining binding at 1 µM [23]: 100%
remaining binding at 1 µM [24]: 95%
remaining binding at 1 µM [25]: 80%
remaining binding at 1 µM [26]: 77%
remaining binding at 1 µM [27]: 100%
remaining binding at 1 µM [28]: 100%
remaining binding at 1 µM [29]: 97%
remaining binding at 1 µM [30]: 96%
remaining binding at 1 µM [31]: 82%
remaining binding at 1 µM [32]: 100%
remaining binding at 1 µM [33]: 94%
remaining binding at 1 µM [34]: 95%
remaining binding at 1 µM [35]: 100%
remaining binding at 1 µM [36]: 100%
remaining binding at 1 µM [37]: 100%
remaining binding at 1 µM [38]: 97%
% of residual activity Mm_CLK1 ([39]; 1 µM): 21%
% of residual activity Mm_CLK1 ([39]; 10 µM): 11%
IC50 [40]: 4 µM
